Data reported in US4105766A, “4,5-Dihydro-5-oxopyrazolo[1,5-a]quinazoline-3-carboxylic acid derivatives” (Sterling Drug Inc., priority 1977, dated 1978).

Legend:
[1] = test system: carrageenin-induced foot edema; assay: carrageenin-edema test (CE), inhibition of carrageenin-induced foot edema in rats; type: in vivo; conditions: Rattus norvegicus, dose .324 mmole/kg., read-out: % Inhibition C.E.
Description: (1) The inhibition of carrageenin-induced foot edema test essentially described by Winter et al., Proc. Soc. […] Therap. […] J. Vet. […] Arch. Allergy Appl. Immunol.
Here, and elsewhere in other tables which follow, compounds are identified by the Example number above where their preparations are recorded. For purposes of comparison, data are also given for the reference compound 4,5-dihydro-5-oxopyrazolo[1,5-a]quinazoline-3-carboxylic acid disclosed by Wright, ibid., identified here and elsewhere in the tables which follow as "Ref.".

Trypanosoma brucei = assay: trypanosomicidal test in infected mice; type: in vivo, Trypanosoma brucei (in mice)
Description: Trypanosomicidal activity of the compounds of the invention was determined in a test procedure in which albino female mice (Taconic Farms) weighing 20± 2 g. were intraperitoneally injected 3 days prior to initial medication with 0.2 ml. of an inoculum containing 500 Trypanosoma brucei organisms in 0.85% sterile saline. Blood for infecting purposes was obtained via cardiac puncture of a donor mouse previously determined to have a high parasitemia. Test medications to groups of five mice were started 3 days after infection at a time when the animals had begun to develop a rising blood parasitemia. […] Groups of 10 non-medicated infected control mice and five animals medicated with the reference compound LAMPIT® (tetrahydro-3-methyl-4-[(5-nitrofurfurylidene)amino]-2H-1,4-thiazine-1,1-dioxide) were included in each screening test. The test system is based on the survival of animals medicated with the test compound, and those mice alive at the end of 28 days post-infection were recorded as cured. (Non-medicated infected control mice rarely succumb later than 5 to 6 days post-innoculation with T. brucei). A compound was considered active if at least two of five animals survived until the termination of a 28 day post-infection holding period.
(§1) Results obtained in amoebacidal and trypanosomicidal tests on the compounds of the invention against E. criceti and T. brucei, respectively, are given in the table below. Results are expressed as a ratio: Number of Animals Cleared/Total Test Animals.

Entamoeba criceti = assay: amoebacidal test in naturally infected hamsters; type: in vivo, Entamoeba criceti (in hamsters)
Description: Anti-parasitic activity of the compounds was shown by the following test procedures. Amoebacidal activity was shown in a test in which 100 or more female hamsters (Sprague-Dawley) weighing between 90 and 130 g. were individually weighed and sorted into groups of five animals each averaging either 100 ± 10 g. or 120 ± 10g. The test compounds (at least 200 mg.) and a reference standard, N,N'-(phenylenedimethylene)-bis[α,α-dichloro-N-(2-ethoxyethyl)acetamide] (FALMONOX®), were dissolved or suspended in 10 percent gelatin. The test compounds and the reference standard were administered to the naturally infected hamsters intragastrically via syringe in equally subdivided doses of 0.5 ml. […] On the fourth day each of the test animals and the five hamsters receiving the reference drug, as well as non-medicated infected control animals, were killed and a portion of the mucus from the wall of the cecum was mixed in a drop of 0.85% sodium chloride. The preparation was examined under low power (100 ×) of a compound microscope for the presence of motile trophozoites of Entamoeba criceti, and when a preparation was determined to be free from trophozoites, a second specimen was taken from another part of the cecum of the same animal and thoroughly examined before the animal was declared cleared of amoebas. […] Results were recorded as a fraction: number of hamsters cleared/number of hamsters treated.
as §1

[2] = test system: passive cutaneous anaphylaxis; assay: passive cutaneous anaphylaxis test in rats (anti-allergy); type: in vivo; conditions: rats, standard dose of 100 mg./kg. (p.o.); for inhibition in vivo at 100 mg/kg: Rattus norvegicus, po
From the text: (1) The inhibition of carrageenin-induced foot edema test essentially described by Winter et al., Proc. Soc. Exp. Biol. and Med. 111, 544 (1962) as modified by Van Arman et al., J. Pharmacol. Exptl. Therap. 150, 328 (1965) and (2) a modification of the inhibition of adjuvant-induced arthritis test described by Pierson, J. Chronic Diseases 16, 863 (1963) and Glenn et al., Am. J. Vet. Res. 26, 1180 (1965), which were used to establish the anti-inflammatory activities of the compounds; and the passive cutaneous anaphylaxis test described by Mielens et al., Int. Arch. Allergy Appl. Immunol. 47, 633-649 (1974) which was used to establish the anti-allergy activity of the compounds.
Results are expressed either in terms of % Inhibition at a standard dose of 100 mg./kg. (p.o.), as an Average Effective Dose50 (AED50), or as a ratio, R, where: [formula]

| SMILES | % Inhibition (passive cutaneous anaphylaxis) [2] | No. Cleared/No. Tested, Amoeba (Entamoeba criceti; dose 100 mg./kg.) | inhibition in vivo at 100 mg/kg [2] [%] | other results |
| --- | --- | --- | --- | --- |
| Cn1c(=O)c2cc(F)ccc2n2ncc(C(=O)O)c12 [Example 7P] | Inac. | – | – | inhibition in vivo at 324 µmol/kg [1]: 0%; No. Cleared/No. Tested, Tryp. (Trypanosoma brucei; dose 200 mg./kg. p.o., i.p.): 3/5; Amoeba (activity in words) (Entamoeba criceti; dose not given): Inac. (inactive when zero or one of the five hamsters were trophozoite free) |
| Cn1c(=O)c2cc(NC(=S)Nc3ccccc3)ccc2n2ncc(C(=O)O)c12 [Example 7T] | – | 3/3 | – | Tryp. (activity in words) (Trypanosoma brucei; dose not given): Inac. (inactive if none of the animals survived to the end of the test); No. Cleared/No. Tested, Amoeba (Entamoeba criceti; dose 50 mg./kg.): 0/3 |
| CCOC(=O)c1cnn2c3ccc(C)cc3c(=O)n(C)c12 [Example 2F] | Inac. | 5/5 | 6 | No. Cleared/No. Tested, Amoeba (Entamoeba criceti; dose 25 mg./kg.): 0/5 |
| CCOC(=O)c1cnn2c3ccc(Cl)cc3c(=O)n(C)c12 [Example 2H] | – | 2/4 | 32 | – |
| O=C(O)c1cnn2c1[nH]c(=O)c1ccc(Cl)cc12 [Example 7L] | – | 2/5 | 74 | – |
